The results in this text go back to ChEMBL document CHEMBL1136640, “The newly synthesized linoleic acid derivative FR236924 induces a long-lasting facilitation of hippocampal neurotransmission by targeting nicotinic acetylcholine receptors” (2003).

In assay [1] the test system is Torpedo. Nature of the assay: Effect on Torpedo nicotinic ACh receptor responses at 0 min determined by measuring percentage of original amplitude.
Assay [2] concerns Torpedo. Nature of the assay: Effect on Torpedo nicotinic ACh receptor responses at 10 min determined by measuring percentage of original amplitude.
Another assay concerns Rattus norvegicus. The assay can be described thus: Intraperitoneal dose required to facilitate the hippocampal neurotransmission in rat. Type of assay: functional, Hippocampus.

Turning to `CC/C=C\C/C=C\C/C=C\CCCCCCCC(=O)O`, the Original amplitude with Torpedo [1] amounted to 77%; in the assay with Torpedo [2] it was 272%.
Consider `CCCCCCCC/C=C\CCCCCCCC(=O)O`, for which the results for the Original amplitude with Torpedo [1] and in the assay on Torpedo [2] were 108% and 139%, respectively.
In the case of `CCCCCC1CC1CC1CC1CCCCCCCC(=O)O` (configuration not stated) [FR-236924], the Original amplitude in the assay with Torpedo [1] was 122%; in the assay with Torpedo [2], 156%. Besides, the Dose in the assay with Rattus norvegicus was 2 mg/kg.
On to `CCC1CC1CC1CC1CC1CC1CCCCCCCC(=O)O` (configuration not stated), for which the figures for the Original amplitude in the assay with Torpedo [1] and in the assay with Torpedo [2] were 87% and 69%, respectively.
In the same order, the values of `CCCCCCCCC1CC1CCCCCCCC(=O)O` (configuration not stated) are 117% and 124%.
`CCCCCC1CC1CC1CC1CC1CC1CC1CC1CCCC(=O)O` (configuration not stated): the figures for the Original amplitude in the assay on Torpedo [1] and in the assay on Torpedo [2] were 88% and 78%, respectively.
For `CCCCC/C=C\C/C=C\C/C=C\C/C=C\CCCC(=O)O`, the figures for the Original amplitude with Torpedo [1] and in the assay with Torpedo [2] were 78% and 139%, respectively.
For `CCCCC/C=C\C/C=C\CCCCCCCC(=O)O` the same measures were 72% and 175%.
